Laboratory results taken from patent US9605004B2, “Chemical compounds” (SYNGENTA LIMITED, priority 2013, dated 2017).

Key:
[1] = tested on: a variety of test species; experiment: Pre-emergence herbicidal activity (Example 8a, Table 2); format: in vivo; parameters: key: 0 = no damage to plant, 5 = total damage to plant; conditions: application pre-emergence, rate 1000 g/ha, evaluated after 13 days
Method in brief: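 Damage was rated 13 days after treatment on a 0–5 scale (0 = no damage, 5 = total damage). Pots of seeds in standard soil were sprayed one day after sowing with an aqueous solution from an acetone/water (50:50), 0.5% Tween 20 formulation and kept at 24/16 °C day/night.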

[2] = tested on: a variety of test species; experiment: Post-emergence herbicidal activity (Example 8b, Table 3); format: in vivo; conditions: application post-emergence, rate 1000 g/ha, evaluated after 13 days, scale 0-5; for Herbicidal damage score, ABUTH: Abutilon theophrasti; for Herbicidal damage score, ALOMY: Alopecurus myosuroides; for Herbicidal damage score, AMARE: Amaranthus retroflexus; for Herbicidal damage score, ECHCG: Echinochloa crus-galli; for Herbicidal damage score, SETFA: Setaria faberi; for Herbicidal damage score, ZEAMX: Zea mays
Method in brief: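 Seeds were sown in standard soil and cultivated for 8 days under controlled glasshouse conditions. Seedlings were then sprayed with an aqueous solution of the formulated compound containing 0.5% Tween 20. Injury was rated after a further 13 days, where 5 indicated total damage.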

Row | SMILES | Pre-emergence herbicidal activity, damage score ABUTH [1] | Pre-emergence herbicidal activity, damage score ALOMY [1] | Pre-emergence herbicidal activity, damage score AMARE [1] | Pre-emergence herbicidal activity, damage score ECHCG [1] | Pre-emergence herbicidal activity, damage score SETFA [1] | Pre-emergence herbicidal activity, damage score ZEAMX [1] | Herbicidal damage score, ABUTH [2] | Herbicidal damage score, ALOMY [2] | Herbicidal damage score, AMARE [2] | Herbicidal damage score, ECHCG [2] | Herbicidal damage score, SETFA [2] | Herbicidal damage score, ZEAMX [2]
1 | CCn1nc(N2C(=O)C(Cl)=C(C)C2O)c2c1C(C)(C)CC2 (stereo not drawn) [Compound E1] | 5 | 4 | 5 | 5 | 4 | 2 | 5 | 4 | 5 | 5 | 5 | 4
2 | CCn1nc(N2C(=O)C(Cl)=C(C)C2O)c2c1C(C)(C)CC2 (stereo not drawn) [Compound E2] | 5 | 3 | 5 | 5 | 5 | 3 | 5 | 5 | 5 | 5 | 5 | 5
3 | CC1=C(Cl)C(=O)N(c2nn(C)c3c2CCCCC3(C)C)C1O (stereo not drawn) [Compound E3] | 4 | 2 | 5 | 4 | 2 | 1 | 4 | 4 | 5 | 5 | 4 | 2
4 | CC1=C(Cl)C(=O)N(c2nn(C)c3c2C2CCC3C2)C1O (stereo not drawn) [Compound E4] | 5 | 3 | 5 | 4 | 5 | 2 | 5 | 4 | 5 | 5 | 5 | 4
5 | CC1=C(Cl)C(=O)N(c2nn(C)c3c2CCCC3(C)C)C1O (stereo not drawn) [Compound E5] | 5 | 3 | 5 | 5 | 5 | 2 | 5 | 5 | 5 | 5 | 5 | 4
6 | CC1=C(Cl)C(=O)N(c2cc(C(C)(C)C)n(C)n2)C1OC(=O)OCC(C)C (stereo not drawn) [Compound F1] | 5 | 3 | 5 | 5 | 4 | 2 | 5 | 5 | 5 | 5 | 5 | 5
7 | CC1=C(Cl)C(=O)N(c2cc(C(C)(C)C)n(C)n2)C1OC(=O)Oc1ccccc1 (stereo not drawn) [Compound F2] | 5 | 3 | 5 | 5 | 4 | 3 | 5 | 5 | 5 | 5 | 5 | 5
8 | CC1=C(Cl)C(=O)N(c2cc(C(C)(C)C)n(C)n2)C1OC(=O)Oc1ccccc1 (stereo not drawn) [Compound F3] | 5 | 3 | 5 | 5 | 4 | 3 | 5 | 5 | 5 | 5 | 5 | 5
9 | CC1=C(Cl)C(=O)N(c2cc(C(C)(C)C)n(C)n2)C1OC(=O)OCC(C)C (stereo not drawn) [Compound F4] | 5 | 3 | 5 | 5 | 4 | 2 | 5 | 5 | 5 | 5 | 5 | 5
10 | CC1=C(Cl)C(=O)N(c2cc3n(n2)CCC3(C)C)C1O (stereo not drawn) [Compound G2] | 5 | 4 | 5 | 5 | 5 | 4 | 5 | 5 | 5 | 5 | 5 | 4
11 | CC1=C(Cl)C(=O)N(c2cc3n(n2)CCCC3(C)C)C1O (stereo not drawn) [Compound G4] | 5 | 4 | 5 | 5 | 5 | 3 | 5 | 5 | 5 | 5 | 5 | 5
12 | CC1=C(Cl)C(=O)N(c2cc3n(n2)CCC3(C)C)C1O (stereo not drawn) [Compound G8] | 5 | 4 | 5 | 5 | 5 | 4 | 5 | 5 | 5 | 5 | 5 | 4
13 | CC1=C(Cl)C(=O)N(c2cc3n(n2)CCCC3(C)C)C1O (stereo not drawn) [Compound G9] | 5 | 4 | 5 | 5 | 5 | 3 | 5 | 5 | 5 | 5 | 5 | 5
14 | CC1=C(Cl)C(=O)N(c2cc3n(n2)CCSC3(C)C)C1O (stereo not drawn) [Compound G10] | 5 | 3 | 5 | 5 | 4 | 4 | 5 | 5 | 5 | 5 | 5 | 4
15 | CC1=C(Cl)C(=O)N(c2cc3n(n2)CCS(=O)(=O)C3(C)C)C1O (stereo not drawn) [Compound G11] | 5 | 4 | 5 | 5 | 5 | 4 | 5 | 5 | 5 | 5 | 5 | 3
